# Laboratory results reported in patent US10117946B2, “Self-assembling ultrashort peptides modified with bioactive agents by click chemistry” (Agency for Science, Technology and Research, priority 2012, dated 2018).
# Where “and” joins values, the source holds several entries; their conditions need not be identical. Identical values can stand only once.
# Legend:
# [1] = tested on: HeLa (cervical carcinoma) cells; assay: Cytotoxicity, colorimetric microculture assay (MTS assay); type: cell-based, human; settings: 96 h exposure
# Protocol: (§1) Cytotoxicity of all synthesized compounds was evaluated on two human derived cancer cell lines namely HeLa (cervical carcinoma) and SW480 (colon carcinoma). 4T1 mouse breast cancer cells were also used for evaluation. Cells were first treated with different concentrations of the test compounds and incubated for 96 h at 37° C. Subsequently, the cell viability was measured by means of a colorimetric microculture assay (MTS assay).
# (§2) Human cervical carcinoma cell line HeLa, human colon carcinoma cell line SW480 and mouse breast cancer cell line 4T1 were purchased from the American Type Culture Collection (Manassas, Va., USA). The cell lines were cultured in DME medium (Biopolis shared facilities, A*STAR, SG) supplemented with 10% heat inactivated fetal bovine serum and 1% of mixture of penicillin and streptomycin (Invitrogen, CA, U.S.A). The cells were maintained in a 75 mL cell culture flask (Nunc) at 37° C. in a humidified incubator with 95% air and 5% CO2.
# (§3) Cytotoxicity was determined by means of a colorimetric microculture assay (MTs assay, MTS=[…]) For this purpose, HeLa, SW480, and 4T1 cells were harvested from culture flasks by trypsinization and seeded into 96-well microculture plates in cell densities of 3.5×10^3 cells/well. The cells were allowed to attach for 8 h. Subsequently, cells were exposed to serial dilutions of the test compounds in 150 μL/well complete culture medium for 96 h. Then 25 uL of CellTiter 96® Aqueous one solution reagent was added to the cells, followed by incubation for 2 h at 37° C. After incubation, the absorbance was measured at a wavelength of 499 nm using a microplate reader. The quantity of vital cells was expressed in terms of T/C values in comparison to untreated control microcultures, and 50% inhibitory concentrations (IC50) were calculated from concentration-effect curves by a nonlinear curve fit using Origin Lab 7.5.
# [2] = tested on: SW480 (colon carcinoma) cells; assay: as above; type: cell-based, human; settings: 96 h exposure
# Protocol: as §1, §2, §3
# [3] = tested on: 4T1 mouse breast cancer cells; assay: as above; type: cell-based; settings: 96 h exposure
# Protocol: as §1, §2
# Cytotoxicity was determined by means of a colorimetric microculture assay (MTs assay, MTS=[…]) For this purpose, HeLa, SW480, and 4T1 cells were harvested from culture flasks by trypsinization and seeded into 96-well microculture plates in cell densities of 3.5×10^3 cells/well. […] After incubation, the absorbance was measured at a wavelength of 499 nm using a microplate reader. […]
# 4T1 cells = assay: Cell cycle analysis (propidium iodide, flow cytometry); type: cell-based, mouse; settings: 10 μM, 96 h
# Protocol: (§4) To further characterize the in vitro efficacy of 3-6, cell cycle analysis and measurement of caspase activity was conducted after incubation with the drug candidates. […] Oxaliplatin coordinates to DNA nucleotides, preventing the cell from crossing the DNA damage check point. […] This is very close to the oxaliplatin control were about 55% of the cells were in a G2/M arrest. […] The fact that all compounds were associated with an increase in the G2/M phase proves that compound 3-6 is able to bind to DNA in the tested cells, although the effect is not as pronounced as in the oxaliplatin control.
# (§5) Cells (3×10^6 cells) were seeded into 10 cm petridishes and allowed to recover for 24 h. The medium was exchanged to serum free DME medium and the cells were allowed to synchronize for 24 h. The medium was later changed to DME medium containing 10% heat inactivated fetal bovine serum and 1% of mixture of penicillin and streptomycin (Invitrogen, CA, U.S.A). Cells were exposed to 10 μM of the test compounds for 96 h. Control and treated cells were collected, washed with PBS, fixed in 70% ice-cold ethanol, and stored at −20° C. To determine cell cycle distributions, cells were transferred to a PBS solution, incubated with 10 μg/mL RNase A for 30 min at 37° C., and treated with 5 μg/mL propidium iodide for 30 min. Fluorescence of individual cells was measured by flow cytometry, […]
# SW480 cells = assay: as above; type: cell-based, human; settings: 10 μM, 96 h
# Protocol: as §4, §5
# [4] = tested on: 4T1 breast cancer tumor in BALB/c mice; assay: In vivo therapeutic efficacy, intratumoral injection, tumor volume; set-up: species or system mouse; settings: for Tumor volume, Significant? vs. PBS, Day 14: Holm-Sidak, overall significance level 0.05, comparator PBS group
# Description: (§6) Female BALB/c mice were divided into four groups for treatment (PBS group and Ac-LIVAGK-NH2 (SEQ ID NO. 16 acylated and amidated) hydrogel group as negative controls, oxaliplatin as positive control and test compound 3 as a hybrid hydrogel with Ac-LIVAGK-NH2 (SEQ ID NO. 16 acylated and amidated)). Each group comprised of 9 mice. Tumour growth was initiated via a subcutaneous injection of 1 million 4T1 cells into the mouse flank. Seven days after cell injection, compound 3 was directly injected into the tumor using Ac-LIVAGK-NH2 (SEQ ID NO. 16 acylated and amidated), its parent peptide, as gel matrix. The same volume was accordingly injected into the other three groups. As a first dose 15 mg/kg oxaliplatin was used, which is equivalent to 44 mg/kg of compound 3. A re-injection was performed on day 21 of the experiment. The animals were sacrificed on day 28 and final tumor size was measured.
# (§7) Adult female Balb/c mice used in this study (weight 20 g; aged 6-8 weeks) were provided by Biological Resource Center (BRC), A*Star, Biopolis, Singapore. For tumor establishment, 1×10^6 mouse 4T1 breast cancer cells were injected subcutaneously into the flank of Balb/c mice (designated as day 0). To investigate the effect of the mixture of Oxaliplatin and hydrogel, the tumor-inoculated animals were divided into 4 groups (n=9 per group) on day 7 post-tumor inoculation and received an intratumor injection of sample solutions: phosphate buffered saline (PBS), Ac-LIVAGK-NH2 (SEQ ID NO. 16 acylated and amidated) (12.5 mg/mL) oxaliplatin (15 mg/kg), 3 (44 mg/kg) and Ac-LIVAGK-NH2 (SEQ ID NO. 16 acylated and amidated) (12.5 mg/mL). 100 μL of each sample were injected directly into the tumor. The hydrogels were prepared prior to injection by dissolving the peptide in 1×PBS and vortexing for 1 min. The sample containing 3 was prepared in a similar manner; 3 was dissolved in 1×PBS and the resulting solution was added to the peptide and vortexed for 1 min. A solid hydrogel was observed about 10 min after sample preparation, to allow in situ gelation inside the tumor.
# Tumor volume was determined by measurement with an electronic digital vernier caliper. Readings were taken once a week until day 28 post-tumor inoculation. The ellipsoid volume of the tumor (mm^3) was then calculated using the formula: Volume=(Width)×(Length)×(height)×π/6.
# (§8) Data are represented as mean±SE. […] A P-value of <0.05 was considered to be statistically significant.
# [5] = In vivo study, body weight comparison of treatment groups; set-up: species or system mouse
# Description: as §6
# The same holds true for day 21 of the experiment. […] This was confirmed by a significant weight difference between the oxaliplatin group and the group treated with compound 3. Therefore, reinjection on day 21 involved only half the initial dose.
# as §7, §8
# [6] = Gelation ability in water (vortexing, left to stand overnight); type: physicochemical
# Protocol: To test the gelation ability of compounds 3-8, they were dissolved in water by vortexing and left to stand overnight. […] In contrast, the alkyne-derived peptide P1 gelled in water at a concentration of 30 mg/mL, which is close to the minimal gelation concentration of its parent peptide SEQ ID NO 16 Ac-LIVAGK-NH2 (Ac-LK6-NH2). […] We assume, that the derivatization of the peptides with cisplatin or oxaliplatin and a bulky triazole group interferes with their self-assembly by changing the lipophilicity of the N-terminus of the peptide. However, stable hybrid gels could be formed with up to 40 wt % loading when the parent peptide was used as a matrix.
# [7] = Holm-Sidak pairwise comparison, comparator Ac-LK6-NH2 hydrogel group
# [8] = Holm-Sidak pairwise comparison, comparator PBS group
# [9] = Holm-Sidak, 0.05, comparator Ac-LK6-NH2 hydrogel group
# [10] = Holm-Sidak, 0.05, comparator PBS group
# [11] = comparator Ac-LK6-NH2 hydrogel group
molecule,measurement,setting,value
O=C1[O][Pt]2([NH][C@@H]3CCCC[C@H]3[NH]2)[O]C1=O [oxaliplatin],IC50,[1],2000 ± 800 nM
same,IC50,[2],500 nM and 470 nM
same,IC50,[3],1800 ± 500 nM
same,apoptotic cells,4T1 cells,about 30%
same,cells arrested in G2/M,4T1 cells,about 55%
same,apoptotic cells,SW480 cells,no apoptotic cells
same,cells arrested in G2/M,SW480 cells,about 80%
same,"Tumor volume, Diff of Means vs. Ac-LK6-NH2, Day 14",[4]; [7],101.218 mm^3
same,"Tumor volume, Diff of Means vs. Ac-LK6-NH2, Day 28",[4]; [7],1150.053 mm^3
same,"Tumor volume, Diff of Means vs. LK6, Day 21","[4]; Holm-Sidak pairwise comparison, comparator LK6 hydrogel group",487.488 mm^3
same,"Tumor volume, Diff of Means vs. PBS, Day 14",[4]; [8],253.590 mm^3
same,"Tumor volume, Diff of Means vs. PBS, Day 21",[4]; [8],580.470 mm^3
same,"Tumor volume, Diff of Means vs. PBS, Day 28",[4]; [8],855.616 mm^3
same,"Tumor volume, Significant? vs. Ac-LK6-NH2, Day 14",[4]; [9],No
same,"Tumor volume, Significant? vs. Ac-LK6-NH2, Day 28",[4]; [9],Yes
same,"Tumor volume, Significant? vs. LK6, Day 21","[4]; Holm-Sidak, 0.05, comparator LK6 hydrogel group",Yes
same,"Tumor volume, Significant? vs. PBS, Day 21",[4]; [10],Yes
same,"Tumor volume, Significant? vs. PBS, Day 28",[4]; [10],Yes
same,"Tumor volume, Significant? vs. PBS, Day 14",[4],Significant tumor reduction
same,"Tumor volume, Significant? vs. PBS, Day 14",[4]; listed as Oxaliplatin,Yes
same,"Tumor volume, Mean, Day 7","[4]; day 7 post-tumor inoculation = day of first intratumoral injection (baseline), n=9",61.938 mm^3
same,"Tumor volume, Mean, Day 14","[4]; day 14, intratumoral injection day 7: oxaliplatin 15 mg/kg or 3 44 mg/kg in Ac-LIVAGK-NH2 gel, n=9",135.101 mm^3
same,"Tumor volume, Mean, Day 21","[4]; day 21, intratumoral injection day 7: oxaliplatin 15 mg/kg or 3 44 mg/kg in Ac-LIVAGK-NH2 gel, n=9",96.493 mm^3
same,"Tumor volume, Mean, Day 28","[4]; day 28, injection day 7, re-injection day 21 with half the initial dose, n=9",250.650 mm^3
same,"Weight, Significant? vs. Ac-LK6-NH2, Day 20",[5]; [9],Yes
same,"Weight, Significant? vs. Ac-LK6-NH2, Day 28",[5]; [9],Yes
same,"Weight, Significant? vs. PBS, Day 20",[5]; [10],Yes
same,"Weight, Significant? vs. PBS, Day 28",[5]; [10],Yes
same,"Weight, Mean, Day 20","[5]; body weight of BALB/c mice, day 20, injection day 7, n=9",19.754
same,"Weight, Mean, Day 28","[5]; body weight of BALB/c mice, day 28, re-injection day 21 with half dose, n=9",20.593
same,"Weight, Diff of Means vs. Ac-LK6-NH2, Day 20",[5]; [11],2.831
same,"Weight, Diff of Means vs. Ac-LK6-NH2, Day 28",[5]; [11],1.982
same,"Weight, Diff of Means vs. PBS, Day 20",[5]; comparator PBS group,2.813
same,"Weight, Diff of Means vs. PBS, Day 28",[5]; comparator PBS group,1.742
same,"effect on the mice at the administered dose, compared to conjugate 3","[5]; oxaliplatin 15 mg/kg intratumoral, confirmed by significant weight difference",significant deleterious effect
"P1: alkyne-derived (propiolic acid functionalized) peptide; parent peptide Ac-LIVAGK-NH2 (also: propiolic acid alkyne functionalization, site not given here) [Compound P1]",concentration at which the peptide gelled in water,[6],30000 µg/mL
N.N.[Cl][Pt][Cl] [cisplatin],IC50,[1],620 nM and 1000 nM
same,IC50,[2],4000 ± 2500 nM
same,IC50,[3],1500 ± 600 nM
